Twelve compounds from US7019023B2, “Benzothiepine 1, 1-dioxide derivatives, a process for their preparation, pharmaceuticals comprising these compounds, and their use” (Aventis Pharma Deutschland GmbH, priority 1998, dated 2006) can be followed below.

SMILES strings stand for the structures.

For the first assay, the system named is bile acid transport in the ileum and the fecal excretion of bile acids. Nature of the assay: ED200 excretion: fecal excretion of 14C-taurocholate in the rat after oral administration twice daily. As to conditions: Rattus norvegicus, po, 24 h, twice daily for one day, male Wistar rats; dose which increases fecal excretion of 14C taurocholic acid to 200% of control; diastereomer mixture unless stated. Format: in vivo. On the procedure: The biological testing of the compounds according to the invention was carried out by determination of the ED200 excretion. This testing investigates the action of the compounds according to the invention on the bile acid transport in the ileum and the fecal excretion of bile acids in the rat after oral administration twice daily. The diastereomer mixtures of the compounds were tested.
The following recipe was used for the formulation of an aqueous solution:
the substances were dissolved in adequate volumes of an aqueous solution comprising Solutol (=polyethylene glycol […] hydroxystearate; BASF, Ludwigshafen, Germany; Batch No. 1763), so that a final concentration of 5% of Solutol is present in the aqueous solution. The solutions/suspensions were administered orally in a dose of 5 ml/kg. 2) Experimental Conditions
Male Wistar rats (Kastengrund, Hoechst AG, weight range 250–350 g) were kept in groups of 6 animals each and received a standard feed mixture (Altromin, Lage, Germany) from 10 days before the start of treatment (day 1) with a reversed day/night rhythm (4.00–16.00 dark, 16.00–4.00 light). Three days before the start of the experiment (day 0), the animals were divided into groups of 4 animals each.
After intravenous or subcutaneous administration of 5 μCi of ^14C-taurocholate per rat (day 0), the vehicles or test substances were given at 7.00–8.00 and at 15.00–16.00 on the following day (day 1) (treatment for one day).
Stool samples for the analysis of C-taurocholate were taken every 24 hours directly after the administration of the morning dose. The feces were weighed, stored at −18° C. and later suspended in 100 ml of demineralized water and homogenized (Ultra Turrax, Janke & Kunkel, IKA-Werk). Aliquot parts (0.5 g) were weighed and combusted on combustion lids (Combusto Cones, Canberra Packard) in a combustion apparatus (Tri Carb® 307 combuster Canberra Packard GmbH, Frankfurt am Main, Germany). The resulting ^14CO2 was absorbed with Carbo-Sorb® (Canberra Packard). The following ^14C radioactivity measurements were determined after addition of the scintillator (Perma-Fluor complete scintillation cocktail No. 6013187, Packard) to the samples with the aid of liquid scintillation counting (LSC). The fecal excretion of ^14C-taurocholic acid was calculated as a cumulative and/or percentage residual radioactivity (see below).
The fecal excretion of ^14C-TCA was determined in combusted aliquot parts of the stool samples taken at 24-hour intervals, calculated as the “cumulative percentage” of the administered activity and expressed as a % of the residual activity (=remaining activity, i.e. administered activity minus the already excreted activity). For the calculation of the dose-response curves, the excretion of ^14C taurocholic acid was expressed as a percentage proportion of the corresponding values of the control group (treated with vehicle). The ED200, i.e. the dose which increases the fecal excretion of ^14C taurocholic acid to 200% of the control group, is calculated from a sigmoid or linear dose-response curve by interpolation. The calculated ED200 corresponds to a dose which doubles the fecal excretion of bile acids.
Consider `CCCC[C@]1(CC)CS(=O)(=O)c2ccc(N(C)C)cc2[C@@H](c2cccc(N)c2)[C@H]1O` [Comparison Example 1, reference compound], for which the ED (200% of control) is 0.8 mg/kg/day.
Regarding `CCCC[C@]1(CC)CS(=O)(=O)c2ccc(N(C)C)cc2[C@@H](c2cccc(NC(=O)CCCCBr)c2)[C@H]1O` [Comparison Example 2, reference compound], the ED (200% of control) turned out to be 1 mg/kg/day.
With `CCCC[C@]1(CC)CS(=O)(=O)c2ccc(N(C)C)cc2[C@@H](c2cccc(NC(=O)CCCC[N+](CC)(CC)CC)c2)[C@H]1O` [Comparison Example 3, reference compound], the ED (200% of control) amounted to 0.9 mg/kg/day.
As for `CCCC[C@]1(CC)CS(=O)(=O)c2ccc(N(C)C)cc2[C@@H](c2cccc(NC(=O)[C@H](O)[C@@H](O)[C@H](O)[C@H](O)CO)c2)[C@H]1O` [Example 1], the ED (200% of control) was determined as 0.009 mg/kg/day.
Consider `CCCC[C@]1(CC)CS(=O)(=O)c2ccc(N(C)C)cc2[C@@H](c2cccc(NC(=O)[C@H](OC(C)=O)[C@@H](OC(C)=O)[C@H](OC(C)=O)[C@@H](COC(C)=O)OC(C)=O)c2)[C@H]1O` [Example 2], for which the ED (200% of control) came out at 0.008 mg/kg/day.
The same measure, in the same setting: next, `CCCCC1(CCCC)CS(=O)(=O)c2ccc(N(C)C)cc2[C@@H](c2cccc(NC(=O)[C@H](OC(C)=O)[C@@H](OC(C)=O)[C@H](OC(C)=O)[C@@H](COC(C)=O)OC(C)=O)c2)[C@H]1O` [Example 6]: 0.04 mg/kg/day; `CCCCC1(CCCC)CS(=O)(=O)c2ccc(N(C)C)cc2[C@@H](c2cccc(NC(=O)[C@H](O)[C@@H](O)[C@H](O)[C@H](O)CO)c2)[C@H]1O` [Example 7]: 0.04 mg/kg/day.
Regarding `CCCC[C@]1(CC)CS(=O)(=O)c2ccc(N(C)C)cc2[C@@H](c2cccc(NC(=O)CCCCNC(=O)[C@H](OC(C)=O)[C@@H](OC(C)=O)[C@H](OC(C)=O)[C@@H](COC(C)=O)OC(C)=O)c2)[C@H]1O` [Example 8], the ED (200% of control) came out at 0.007 mg/kg/day.
In the case of `CCCC[C@]1(CC)CS(=O)(=O)c2ccc(N(C)C)cc2[C@@H](c2cccc(NC(=O)CCCCNC(=O)[C@H](O)[C@@H](O)[C@H](O)[C@H](O)CO)c2)[C@H]1O` [Example 9], the ED (200% of control) was 0.007 mg/kg/day.
On to `CCCC[C@]1(CC)CS(=O)(=O)c2ccc(N(C)C)cc2[C@@H](c2cccc(NC(=O)CCCCN(C[C@H](OC(C)=O)[C@@H](OC(C)=O)[C@H](OC(C)=O)[C@@H](COC(C)=O)OC(C)=O)C(C)=O)c2)[C@H]1O` [Example 10], for which the ED (200% of control) came out at 0.04 mg/kg/day.

The same assay, now with this note: p.o., twice daily for one day, male Wistar rats; dose which increases fecal excretion of 14C taurocholic acid to 200% of control; diastereomer mixture unless stated.
`CCCC[C@]1(CC)CS(=O)(=O)c2ccc(N(C)C)cc2[C@@H](c2cccc(NC(=O)CCCCNC[C@H](O)[C@@H](O)[C@H](O)[C@H](O)CO)c2)[C@H]1O` [3 (pure structure 11a)]: the ED200 excretion stood at 0.008 mg/kg/day.
On to `CCCC[C@]1(CC)CS(=O)(=O)c2ccc(N(C)C)cc2[C@@H](c2cccc(NC(=O)CCCCNC[C@H](O)[C@@H](O)[C@H](O)[C@H](O)CO)c2)[C@H]1O` [Example 3], for which the ED200 excretion was determined as 0.04 mg/kg/day.
